The source made the active and inactive calls. The rule behind the calls is not given here.
Columns and labels:
[1] = Phototoxicity against human HT-29 cells assessed as inhibition of cell growth incubated for 24 hrs measured under normoxia conditions and after one-photon excitation upon irradiation with light at 520 nm, 200 mW/cm2 for 10 mins by MTT assay; format: functional, cell-based; details: HT-29, light or radiation study
[2] = Phototoxicity against mouse 4T1 cells assessed as inhibition of cell growth incubated for 24 hrs measured under normoxia conditions and after one-photon excitation upon irradiation with light at 520 nm, 200 mW/cm2 for 10 mins by MTT assay; format: functional, cell-based; details: 4T1, light or radiation study
4T1 [3] = test: Cytotoxicity against mouse 4T1 cells assessed as inhibition of cell growth incubated for 24 hrs measured under normoxia conditions by MTT assay; format: functional, cell-based; details: 4T1, 24 h
[4] = Photosensitizing ability of the compound assessed as hydroxyl radical production measured upon irradiation by HPF probe based assay; format: functional
[5] = Phototherapeutic index, ratio of IC50 for cytotoxicity against human HT-29 cells measured under normoxia conditions to IC50 for phototoxicity against human HT-29 cells measured under normoxia conditions and after one-photon excitation upon irradiation with light at 520 nm, 200 mW/cm2 for 10 mins; format: functional
4T1 [6] = test: Phototherapeutic index, ratio of IC50 for cytotoxicity against mouse 4T1 cells measured under normoxia conditions to IC50 for phototoxicity against mouse 4T1 cells measured under normoxia conditions and after one-photon excitation upon irradiation with light at 520 nm, 200 mW/cm2 for 10 mins; format: functional
[7] = Phototoxicity against human A549 cells assessed as inhibition of cell growth incubated for 24 hrs measured under normoxia conditions and after one-photon excitation upon irradiation with light at 520 nm, 200 mW/cm2 for 10 mins by MTT assay; format: functional, cell-based; details: A549, light or radiation study
[8] = Photosensitizing ability of the compound in methanol assessed as singlet oxygen production by measuring quantum yield measured upon irradiation by DPBF based assay; format: functional
A549 = test: Cytotoxicity against human A549 cells assessed as inhibition of cell growth incubated for 24 hrs measured under normoxia conditions by MTT assay; format: functional, cell-based; details: A549, 24 h
[9] = Photosensitizing ability of the compound assessed as superoxide radical production measured upon irradiation by DHE probe based assay; format: functional
HT-29 = test: Cytotoxicity against human HT-29 cells assessed as inhibition of cell growth incubated for 24 hrs measured under normoxia conditions by MTT assay; format: functional, cell-based; details: HT-29, 24 h
[10] = Phototherapeutic index, ratio of IC50 for cytotoxicity against human A549 cells measured under normoxia conditions to IC50 for phototoxicity against human A549 cells measured under normoxia conditions and after one-photon excitation upon irradiation with light at 520 nm, 200 mW/cm2 for 10 mins; format: functional

Row | SMILES | IC50 [1] [µM] | IC50 [2] [µM] | IC50 (4T1 [3]) [µM] | Activity [4] | Ratio IC50 [5] | Ratio IC50 (4T1 [6]) | IC50 [7] [µM] | Activity [8] | IC50 (A549) [µM] | Activity [9] | IC50 (HT-29) [µM] | Ratio IC50 [10]
1 | CCn1c2ccc(/C=C/c3cc[n+](C)c4ccccc34)cc2c2cc([N+](=O)[O-])ccc21.I | 3.55 | 4.81 | 20.1 | Active | 16 | 4 | 4.11 | 0.13 | > 100 | Active | 59.4 | –
2 | CCn1c2ccc(N)cc2c2cc(/C=C/c3cc[n+](C)c4ccccc34)ccc21.[I-] | 2.77 | 3.66 | 20.3 | Active | 7 | 5 | 2.23 | 0.04 | 22.4 | Active | 19.3 | 10
